Earlier results as cited in US6503927B1, “Amorphous paroxetine composition” (Pentech Pharmaceuticals, Inc., priority 1999, dated 2003).
Where a name gives a salt, the structure may show the parent alone.

Details: reported in U.S. Pat. No. 4,721,723 (Barnes et al.) and U.S. Pat. No. 5,672,612 (Ronsen et al.)

hygroscopicity of the solid: undesirably hygroscopic
Compound: Fc1ccc([C@@H]2CCNC[C@H]2COc2ccc3c(c2)OCO3)cc1 [amorphous, paroxetine hydrochloride, paroxetine hydrochloride]
